According to US20260184704A1, “NLRP3 INFLAMMASOME INHIBITORS AND USES THEREOF” (Insilico Medicine IP Limited, priority 2023, published 2026):

Experiments:
[1] = test system: THP-1 cells, IL-1β release; assay: IL-1β Release THP-1 Assay (Example B-3); assay type: cell-based; conditions: Homo sapiens; PMA-differentiated THP-1 cells, LPS then Nigericin, IL-1β by Elisa; read-out: Potency, THP-1 IL-1β, IC50 (nM), Example B-3
Protocol: Example B-3: IL-1β Release THP-1 Assay
THP-1 cells Culture RPMI1640 medium, 10% FBS, 1% PS, 55 uM β-Mer at 37° C. & 5% CO2 incubator.
IL-1β Release Detection • 1) Seed THP-1 in complete RPMI 1640 medium containing PMA into 96 well plate coated with poly-L-lysin incubate for 24 hours. • 2) Remove medium, wash the differentiated THP-1 cells with PBS, add FBS free RPMI 1640 medium. • 3) Add LPS and incubate for 3 hours at 37° C. & 5% CO2 incubator. • 4) Add compounds and incubate for 30 minutes at 37° C. & 5% CO2 incubator. • 5) Add Nigericin and incubate for 1 hour at 37° C. & 5% CO2 incubator. • 6) Collect supernatant to test IL-1β by Elisa.
• a) Assay robustness check with DMSO and Low control data:
[formula] • X: cpd concentration • Y: change % • Top and Bottom: Plateaus in same units as Y • logIC50: same log units as X • HillSlope: Slope factor or Hill slope

NLRP3 = molecular target: T1, NLRP3 (Homo sapiens, UniProt Q96P20); assay: NLRP3 Enzymatic Activity ADP-Glo Assay (Example B-4); assay type: biochemical; conditions: hydrolysis of ATP by NLRP3; NLRP3 15 nM, ATP 1 μM; read-out: NLRP3_ADP-Glo_IC50 (nM), Example B-4
T1 construct: purchased ICE YM2306T-H06MHS
T1 sequence (Q96P20 whole entry): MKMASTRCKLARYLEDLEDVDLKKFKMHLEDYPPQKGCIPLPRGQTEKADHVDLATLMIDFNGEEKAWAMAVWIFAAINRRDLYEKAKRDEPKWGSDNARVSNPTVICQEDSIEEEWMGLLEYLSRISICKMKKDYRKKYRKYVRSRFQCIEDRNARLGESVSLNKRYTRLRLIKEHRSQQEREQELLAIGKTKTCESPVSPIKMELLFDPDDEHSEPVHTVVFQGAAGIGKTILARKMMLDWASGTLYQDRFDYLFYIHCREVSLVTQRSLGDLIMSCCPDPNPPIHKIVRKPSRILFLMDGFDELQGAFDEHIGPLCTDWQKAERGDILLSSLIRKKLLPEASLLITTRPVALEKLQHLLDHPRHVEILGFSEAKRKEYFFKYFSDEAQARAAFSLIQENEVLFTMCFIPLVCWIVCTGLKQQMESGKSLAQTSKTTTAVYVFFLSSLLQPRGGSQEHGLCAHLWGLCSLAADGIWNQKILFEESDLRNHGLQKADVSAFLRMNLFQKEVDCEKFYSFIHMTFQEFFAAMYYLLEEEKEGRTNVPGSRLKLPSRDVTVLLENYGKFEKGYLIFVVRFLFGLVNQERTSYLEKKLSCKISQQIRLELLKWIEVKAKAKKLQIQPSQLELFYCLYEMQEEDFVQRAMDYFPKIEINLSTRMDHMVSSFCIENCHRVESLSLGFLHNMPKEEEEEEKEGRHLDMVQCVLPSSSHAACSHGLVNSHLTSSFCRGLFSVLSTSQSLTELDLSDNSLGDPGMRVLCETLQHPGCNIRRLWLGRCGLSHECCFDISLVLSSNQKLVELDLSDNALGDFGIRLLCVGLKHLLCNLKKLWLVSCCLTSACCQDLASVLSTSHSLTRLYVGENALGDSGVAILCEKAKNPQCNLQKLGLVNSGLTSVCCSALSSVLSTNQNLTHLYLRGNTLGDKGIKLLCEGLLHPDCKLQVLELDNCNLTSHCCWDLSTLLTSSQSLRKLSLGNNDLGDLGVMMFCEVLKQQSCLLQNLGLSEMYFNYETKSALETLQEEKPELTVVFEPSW
Protocol: Example B-4: NLRP3 Enzymatic Activity ADP-Glo Assay
NLRP3 activity test experiment, measuring the hydrolysis of NLRP3 on the substrate ATP using the ADP-Glo assay. First, after adding an inhibitor containing 0.5% DMSO with Echo, add 5 μL of NLRP3 (ICE, YM2306T-H06MHS) enzyme solution to each well, centrifuge at 1000 rpm for 1 min at room temperature and react for 10 min. Then add 5 μL of ATP (Promega, V915A) substrate solution to each well for 90 min at room temperature; NLRP3 and ATP were prepared in 50 mM HEPES, 10 mM MgCl2, 0.01% Brij-35, 1 mM EGTA, and 2 mM DTT buffers at final concentrations of 15 nM and 1 μM, respectively. Subsequently, 10 μL ADP-Glo reagent solution (Promega, V9102) was added into each assay well, centrifuged at 1000 rpm for 1 min, and then incubated at room temperature for 45 min. Finally, 20 μL ADP-Glo detection solution (Promega, V9102) is added to each well, centrifuged at 1000 rpm for 1 min and reacted for 45 min at room temperature. The luminescence signal values were read using a BMG instrument and the IC50 values were determined by fitting the data to an S-shaped dose-response curve using nonlinear regression.

IC50 [1] [nM] | IC50 (NLRP3) [nM] | Compound
10 to 100 | 10 to 100 | Cc1cc(OC(F)F)cc(O)c1C1=NN=C(N[C@H]2C[C@@](C)(O)C2)SC1 [Compound 25]
10 to 100 |  | Cc1cc(C(F)(F)F)cc(O)c1C1=NN=C(N[C@@H]2C[C@H](O)CN(C)C2)SC1 (single isomer, unassigned) [Compound 16]
 | 10 to 100 | Cc1cc2c(c(O)c1C1=NN=C(N[C@H]3C[C@@](C)(O)C3)SC1)OCC2 [Compound 64]
 | 100 to 1000 | Cc1cc(C#N)cc(O)c1C1=NN=C(N2CCC3CCN(C)CC32)SC1 (stereo not shown) [Compound 39]
< 10 |  | Cc1cc(C(F)(F)F)cc(O)c1C1=NN=C(N[C@@H]2CCCNC2)SC1 [Compound 2]
100 to 1000 |  | CC1SC(N[C@@H]2CCCN(C)C2)=NN=C1c1ccc(C(F)(F)F)cc1O (stereo partly shown) [Compound 5]
10 to 100 | 10 to 100 | Cc1cc2c(c(O)c1C1=NN=C(N[C@H]3C[C@@](C)(O)C3)CS1)CCO2 [Compound 203]
100 to 1000 | 10 to 100 | Cc1cc(C(F)(F)F)c(F)c(O)c1C1=NN=C(N[C@H]2C[C@@](C)(O)C2)SC1 [Compound 48]
< 10 | 10 to 100 | COc1cc(C)c(C2=NN=C(N[C@@H]3CCCN(C)C3)SC2)c(O)c1 [Compound 23]
 | > 1000 | Cc1cc2c(cc1C1=NN=C(N[C@@H]3CCCN(C)C3)SC1)CCO2 [Compound 49]
 | 100 to 1000 | Cc1cc2c(c(O)c1C1=NN=C(N(C)[C@@H]3CCCN(C)C3)SC1)CCO2 [Compound 55]
 | > 1000 | CNC(=O)CNC1=NN=C(c2c(C)cc(C(F)(F)F)cc2O)CS1 [Compound 32]
10 to 100 | 10 to 100 | Cc1cc2c(c(O)c1C1=NN=C(N[C@@H]3CCCN(CCO)C3)SC1)CCO2 [Compound 40]
10 to 100 | 10 to 100 | Cc1cc(Cl)cc(O)c1C1=NN=C(N[C@H]2C[C@@](C)(O)C2)SC1 [Compound 30]
100 to 1000 | 100 to 1000 | Cc1cc(C(F)(F)F)cc(O)c1C1=NN=C(N[C@@H]2CCCN(C)C2)N(C)C1 [Compound 36]
10 to 100 | 10 to 100 | Cc1cc(Cl)cc(O)c1C1=NN=C(N[C@H]2C[C@@](C)(N)C2)CS1 [Compound 206]
100 to 1000 |  | Cc1cc(C(F)(F)F)cc(O)c1C1=NN=C(N[C@H]2C[C@@H](O)C2)SC1 [Compound 24]
10 to 100 |  | Cc1cc(C(F)(F)F)cc(O)c1C1=NN=C(N[C@@H]2CCCN(C3COC3)C2)SC1 [Compound 17]
10 to 100 |  | Cc1cc(C(F)(F)F)cc(O)c1C1=NN=C(N[C@@H]2CCN(C)C2)SC1 [Compound 11]
< 10 | 10 to 100 | Cc1cc(C(F)(F)F)cc(O)c1C1=NN=C(N[C@@H]2CCCN(C)C2)SC1 [Compound 1]

IC50 [1] [nM] | IC50 (NLRP3) [nM] | Compound
 | > 1000 | Cc1cc(C(F)(F)F)cc(O)c1C1=NN=C(N2CCC[C@@H]2[C@@H](C)O)SC1 (single isomer, unassigned) [Compound 33]
10 to 100 | 10 to 100 | Cc1cc(C#N)cc(O)c1C1=NN=C(N[C@@H]2CCCN(C)C2)SC1 [Compound 37]
10 to 100 | 10 to 100 | C[C@]1(O)C[C@@H](NC2=NN=C(c3c(C(F)(F)F)cc4c(c3O)CCO4)CS2)C1 [Compound 58]
 | 100 to 1000 | Cc1cc2c(c(O)c1C1=NN=C(N[C@H]3C[C@](C)(O)C3)SC1)CCO2 [Compound 65]
 | > 1000 | Cc1cc(C(F)(F)F)cc(OC(F)F)c1C1=NN=C(N[C@H]2C[C@@](C)(O)C2)SC1 [Compound 42]
< 10 | < 10 | CCN1CCC[C@@H](NC2=NN=C(c3c(C)cc4sccc4c3O)CS2)C1 [Compound 46]
< 10 | < 10 | Cc1cc2sccc2c(O)c1C1=NN=C(N[C@@H]2CCCN(CCO)C2)SC1 [Compound 47]
10 to 100 | 10 to 100 | Cc1cc(C(F)(F)F)cc(O)c1C1=NN=C(N2CCC3CCN(C)CC32)SC1 (stereo not shown) [Compound 35]
 | > 1000 | Cc1cc(C(F)(F)F)cc(O)c1C1=NN=C(N[C@@H]2CCCN(C)C2)OC1 [Compound 52]
< 10 |  | Cc1cc(C(F)(F)F)cc(O)c1C1=NN=C(N[C@@H]2CCCN(CCO)C2)SC1 [Compound 6]
10 to 100 | 10 to 100 | Cc1cc2c(c(O)c1C1=NN=C(N[C@H]3C[C@](C)(O)C3)SC1)CC2 [Compound 67]
 | < 10 | Cc1cc2occc2c(O)c1C1=NN=C(N[C@H]2C[C@@](C)(O)C2)SC1 [Compound 72]
< 10 | 10 to 100 | Cc1cc2c(c(O)c1C1=NN=C(N3CCC4CCN(C)CC43)SC1)CCO2 (stereo not shown) [Compound 51]
10 to 100 | 10 to 100 | Cc1cc(C(F)(F)F)cc(O)c1C1=NN=C(N[C@H]2C[C@@](C)(O)C2)C(C)(C)S1 [Compound 202]
 | 100 to 1000 | Cc1cc2c(c(O)c1C1=NN=C(N[C@H]3C[C@@](C)(O)C3)SC1)COC2 [Compound 62]
10 to 100 | 10 to 100 | C[C@]1(O)C[C@@H](NC2=NN=C(c3c(Cl)cc4c(c3O)CCO4)CS2)C1 [Compound 60]
 | < 10 | CCN1CCC[C@@H](NC2=NN=C(c3c(C)cc4c(c3O)CCO4)CS2)C1 [Compound 54]
< 10 | < 10 | Cc1cc2c(c(O)c1C1=NN=C(N[C@@H]3CCCN(C)C3)CS1)CCO2 [Compound 205]
100 to 1000 |  | Cc1cc(C(F)(F)F)cc(O)c1C1=NN=C(NC[C@@H](C)O)SC1 [Compound 26]
 | 100 to 1000 | Cc1cc2c(c(O)c1C1=NN=C(NC34CCC(O)(CC3)C4)SC1)CCO2 [Compound 63]

IC50 [1] [nM] | IC50 (NLRP3) [nM] | Compound
10 to 100 | 10 to 100 | Cc1cc2c(c(O)c1C1=NN=C(N[C@H]3C[C@@](C)(N)C3)SC1)CC2 [Compound 68]
 | 10 to 100 | [2H]C([2H])([2H])c1cc2c(c(O)c1C1=NN=C(N[C@H]3C[C@@](C)(O)C3)SC1)CCO2 [Compound 71]
10 to 100 | 10 to 100 | Cc1c(F)c2c(c(O)c1C1=NN=C(N[C@@H]3CCCN(C)C3)SC1)CCO2 [Compound 57]
10 to 100 |  | Cc1cc(OC(F)F)cc(O)c1C1=NN=C(N[C@@H]2CCCN(C)C2)SC1 [Compound 21]
10 to 100 |  | Cc1cc(C(F)(F)F)cc(O)c1C1=NN=C(N[C@@H]2C[C@H](F)CN(C)C2)SC1 [Compound 9]
10 to 100 | 10 to 100 | Cc1cc2c(c(O)c1C1=NN=C(N[C@H]3C[C@@](C)(O)C3)SC1)CCC2 [Compound 50]
 | 10 to 100 | Cc1c(F)c2c(c(O)c1C1=NN=C(N[C@H]3C[C@@](C)(O)C3)SC1)CCO2 [Compound 61]
10 to 100 | 10 to 100 | Cc1cc(C(F)(F)F)cc(O)c1C1=NN=C(N[C@H]2C[C@@](C)(O)C2)CS1 [Compound 201]
 | 100 to 1000 | Cc1cc2c(c(O)c1C1=NN=C(N[C@]34CC[C@](O)(C3)C4)SC1)CCO2 [Compound 70]
 | 100 to 1000 | CC#Cc1cc(C)c(C2=NN=C(N[C@@H]3CCCN(C)C3)SC2)c(O)c1 [Compound 56]
10 to 100 | 10 to 100 | C[C@]1(O)C[C@@H](NC2=NN=C(c3c(C(F)F)cc4c(c3O)CCO4)CS2)C1 [Compound 66]
< 10 |  | CCN1CCC[C@@H](NC2=NN=C(c3c(C)cc(C(F)(F)F)cc3O)CS2)C1 [Compound 3]
 | 100 to 1000 | C[C@]1(O)C[C@@H](NC2=NN=C(c3c(O)cc(C(F)(F)F)cc3F)CS2)C1 [Compound 41]
 | 100 to 1000 | Cc1cc(Cl)cc(O)c1C1=NN=C(N[C@H]2C[C@](C)(N)C2)CS1 [Compound 207]
 | > 1000 | Cc1cc(C(F)(F)F)cc(O)c1C1=NN=C(N2CCC[C@@H]2[C@H](C)O)SC1 (single isomer, unassigned) [Compound 34]
 | 100 to 1000 | Cc1cc2c(c(O)c1C1=NN=C(N[C@H]3C[C@](C)(N)C3)SC1)CC2 [Compound 69]
 | > 1000 | Cc1cc(C(F)(F)F)cc(O)c1C1=NN=C(NCCC(N)=O)SC1 [Compound 43]
10 to 100 |  | Cc1cc(C(F)(F)F)cc(O)c1C1=NN=C(N[C@H]2C[C@](O)(C(F)(F)F)C2)SC1 [Compound 29]
100 to 1000 |  | Cc1cc(C(F)(F)F)cc(O)c1C1=NN=C(Nc2cc[nH]n2)SC1 [Compound 22]
10 to 100 |  | Cc1cc(C(F)(F)F)cc(O)c1C1=NN=C(N[C@@H]2CCC[C@H](O)C2)SC1 [Compound 7]

Compound | IC50 [1] [nM] | IC50 (NLRP3) [nM]
Cc1cc(C(F)(F)F)cc(O)c1C1=NN=C(N[C@H]2CN3CCC2CC3)SC1 [Compound 20] | 10 to 100 | 
